{"source": "PubChem BioAssay AID280", "about": "(DTP/NCI, 2004)", "system": "nude mice, LOX melanoma ip, survival T/C", "test": "NCI In Vivo Anticancer Drug Screen. Data for tumor model Human Amelanotic Melanoma (LOX) (intraperitoneal) in NU/NU BALB/C (nude) mice", "conditions": "endpoint: median survival time, schedule: Q04DX003 (ip), higher = longer survival", "protocol": "The antitumor activity of compounds was measured in mice bearing transplantable tumors. Survival or tumor size were measured and the results are expressed as the measurement made in the treated group (T) divided by the measurement made in the vehicle treated control group (C). The tumor model used in this assay is Human Amelanotic Melanoma (LOX) (intraperitoneal) in NU/NU BALB/C (nude) mice", "key": {"[1]": {"conditions": "dose: 75.0 mg/kg/injection, vehicle: saline with Tween-80"}, "[2]": {"conditions": "dose: 300.0 mg/kg/injection, vehicle: saline with Tween-80"}, "[3]": {"conditions": "dose: 150.0 mg/kg/injection, vehicle: saline with Tween-80"}, "[4]": {"conditions": "dose: 75.0 mg/kg/injection, vehicle: saline"}, "[5]": {"conditions": "dose: 150.0 mg/kg/injection, vehicle: saline"}, "[6]": {"conditions": "dose: 600.0 mg/kg/injection, vehicle: saline"}}, "note": "Toxic doses and inconclusive results are not listed."}
{"molecule": "CC(=O)NC(CCc1ccc(Cl)c(Cl)c1)c1cccc(O)c(=O)c1", "note": "(stereo not drawn)", "values": [{"measurement": "T/C", "setting": "dose: 86.4 mg/kg/injection, vehicle: Klucel (hydroxypropylcellulose) (HPC)", "result": "98 % of control"}, {"measurement": "T/C", "setting": "dose: 240.0 mg/kg/injection, vehicle: Klucel (hydroxypropylcellulose) (HPC)", "result": "109 % of control"}]}
{"molecule": "COc1ccc(C(C)c2cc3c(cc2OC)OCO3)cc1", "note": "(stereo not drawn)", "values": [{"measurement": "T/C", "setting": "dose: 25.0 mg/kg/injection, vehicle: saline with Tween-80", "result": "114 % of control"}, {"measurement": "T/C", "setting": "dose: 100.0 mg/kg/injection, vehicle: saline with Tween-80", "result": "158 % of control"}, {"measurement": "T/C", "setting": "dose: 200.0 mg/kg/injection, vehicle: saline with Tween-80", "result": "198 % of control"}]}
{"molecule": "Oc1cccc2ccccc12", "values": [{"measurement": "T/C", "setting": "dose: 18.75 mg/kg/injection, vehicle: water", "result": "98 % of control"}, {"measurement": "T/C", "setting": "dose: 37.5 mg/kg/injection, vehicle: water", "result": "102 % of control"}, {"measurement": "T/C", "setting": "dose: 75.0 mg/kg/injection, vehicle: water", "result": "106 % of control"}, {"measurement": "T/C", "setting": "dose: 150.0 mg/kg/injection, vehicle: water", "result": "102 % of control"}]}
{"molecule": "N=C1CCCS1", "values": [{"measurement": "T/C", "setting": "dose: 10.0 mg/kg/injection, vehicle: saline", "result": "114 % of control"}, {"measurement": "T/C", "setting": "dose: 20.0 mg/kg/injection, vehicle: saline", "result": "96 % of control"}, {"measurement": "T/C", "setting": "dose: 40.0 mg/kg/injection, vehicle: saline", "result": "102 % of control"}, {"measurement": "T/C", "setting": "dose: 80.0 mg/kg/injection, vehicle: saline", "result": "113 % of control"}, {"measurement": "T/C", "setting": "dose: 160.0 mg/kg/injection, vehicle: saline", "result": "116 % of control"}]}
{"molecule": "C=CCNC(=O)c1ccccc1SC(C)=O", "values": [{"measurement": "T/C", "setting": "dose: 37.5 mg/kg/injection, vehicle: saline with Tween-80", "result": "100 % of control"}, {"measurement": "T/C", "setting": "[1]", "result": "95 % of control"}, {"measurement": "T/C", "setting": "[2]", "result": "93 % of control"}]}
{"molecule": "CC1Oc2cc3c(-c4c(O)cc(O)c5c(O)c6c(cc45)OC(C)C(C)C6=O)c(O)cc(O)c3c(O)c2C(=O)C1C", "note": "(stereo not drawn)", "values": [{"measurement": "T/C", "setting": "dose: 1.0 mg/kg/injection, vehicle: suspension in saline", "result": "124 % of control"}, {"measurement": "T/C", "setting": "dose: 4.0 mg/kg/injection, vehicle: suspension in saline", "result": "152 % of control"}]}
{"molecule": "S=C1CCCCN1", "values": [{"measurement": "T/C", "setting": "dose: 37.5 mg/kg/injection, vehicle: distilled water + Tween-80 + alcohol", "result": "98 % of control"}, {"measurement": "T/C", "setting": "dose: 75.0 mg/kg/injection, vehicle: distilled water + Tween-80 + alcohol", "result": "100 % of control"}, {"measurement": "T/C", "setting": "dose: 150.0 mg/kg/injection, vehicle: distilled water + Tween-80 + alcohol", "result": "111 % of control"}]}
{"molecule": "CC1C(c2ccccc2)OC(N2CCOCC2)C(C)(C)CN1C", "note": "(stereo not drawn)", "values": [{"measurement": "T/C", "setting": "[1]", "result": "105 % of control"}, {"measurement": "T/C", "setting": "[3]", "result": "93 % of control"}, {"measurement": "T/C", "setting": "[2]", "result": "90 % of control"}]}
{"molecule": "CN(C)c1ccc2c(Nc3ccc(NS(C)(=O)=O)cc3)c3ccc(N(C)C)cc3nc2c1", "values": [{"measurement": "T/C", "setting": "dose: 25.0 mg/kg/injection, vehicle: Klucel (hydroxypropylcellulose) (HPC)", "result": "101 % of control"}, {"measurement": "T/C", "setting": "dose: 50.0 mg/kg/injection, vehicle: Klucel (hydroxypropylcellulose) (HPC)", "result": "98 % of control"}, {"measurement": "T/C", "setting": "dose: 100.0 mg/kg/injection, vehicle: Klucel (hydroxypropylcellulose) (HPC)", "result": "113 % of control"}, {"measurement": "T/C", "setting": "dose: 200.0 mg/kg/injection, vehicle: Klucel (hydroxypropylcellulose) (HPC)", "result": "163 % of control"}, {"measurement": "T/C", "setting": "dose: 400.0 mg/kg/injection, vehicle: Klucel (hydroxypropylcellulose) (HPC)", "result": "109 % of control"}]}
{"molecule": "CC#CCOCC(O)CCl", "note": "(stereo not drawn)", "values": [{"measurement": "T/C", "setting": "dose: 37.5 mg/kg/injection, vehicle: saline", "result": "97 % of control"}, {"measurement": "T/C", "setting": "[4]", "result": "99 % of control"}, {"measurement": "T/C", "setting": "[5]", "result": "102 % of control"}, {"measurement": "T/C", "setting": "dose: 300.0 mg/kg/injection, vehicle: saline", "result": "106 % of control"}, {"measurement": "T/C", "setting": "[6]", "result": "110 % of control"}]}
{"molecule": "CCN(CC)c1ccc2[nH]c3c(C(N)=O)cc(=O)c(=O)c=3oc2c1", "values": [{"measurement": "T/C", "setting": "[3]", "result": "110 % of control"}, {"measurement": "T/C", "setting": "[2]", "result": "96 % of control"}]}
{"molecule": "CCOC(=O)Nc1cc2c(c(N)n1)N=C(c1ccccc1)CN2", "values": [{"measurement": "T/C", "setting": "dose: 0.94 mg/kg/injection, vehicle: saline with Tween-80", "result": "103 % of control"}, {"measurement": "T/C", "setting": "dose: 1.88 mg/kg/injection, vehicle: saline with Tween-80", "result": "107 % of control"}, {"measurement": "T/C", "setting": "dose: 3.75 mg/kg/injection, vehicle: saline with Tween-80", "result": "119 % of control"}, {"measurement": "T/C", "setting": "dose: 7.5 mg/kg/injection, vehicle: saline with Tween-80", "result": "121 % of control"}]}
{"molecule": "NCc1cc(O)c(O)c(O)c1", "values": [{"measurement": "T/C", "setting": "[4]", "result": "107 % of control"}, {"measurement": "T/C", "setting": "[5]", "result": "101 % of control"}, {"measurement": "T/C", "setting": "[6]", "result": "102 % of control"}]}
{"molecule": "O=C1C2=C(C(=O)c3ncccc31)C1C=CC2CC1", "note": "(stereo not drawn)", "values": [{"measurement": "T/C", "setting": "dose: 25.0 mg/kg/injection, vehicle: DMSO", "result": "99 % of control"}, {"measurement": "T/C", "setting": "dose: 50.0 mg/kg/injection, vehicle: DMSO", "result": "103 % of control"}, {"measurement": "T/C", "setting": "dose: 100.0 mg/kg/injection, vehicle: DMSO", "result": "99 % of control"}, {"measurement": "T/C", "setting": "dose: 200.0 mg/kg/injection, vehicle: DMSO", "result": "89 % of control"}]}
